Read-outs that look alike come from different tables or passages of the source.
Tests used:
[1] = target: T1, Human adrenergic α2B receptor (Homo sapiens, UniProt P18089); test: Radioligand binding, adrenergic α2B (Protocol Group B); set-up: purchased Milipore (Millipore); conditions: Protocol Group B; for Percentage inhibition of ligand binding, Adrenergic α2B (10 nM): 0.01 µM; for Ki: estimated Ki
T1 sequence (P18089 1-450): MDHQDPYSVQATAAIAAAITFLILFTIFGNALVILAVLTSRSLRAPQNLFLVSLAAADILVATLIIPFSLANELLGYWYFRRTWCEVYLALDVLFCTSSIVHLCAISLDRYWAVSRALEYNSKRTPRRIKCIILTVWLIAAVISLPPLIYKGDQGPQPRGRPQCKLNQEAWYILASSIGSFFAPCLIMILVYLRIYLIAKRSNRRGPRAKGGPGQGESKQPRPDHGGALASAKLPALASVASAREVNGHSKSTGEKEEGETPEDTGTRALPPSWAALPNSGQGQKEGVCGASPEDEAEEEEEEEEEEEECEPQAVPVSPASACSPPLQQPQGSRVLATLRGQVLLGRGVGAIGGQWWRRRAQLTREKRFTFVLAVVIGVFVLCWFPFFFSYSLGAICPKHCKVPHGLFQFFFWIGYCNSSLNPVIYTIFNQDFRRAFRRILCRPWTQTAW
Outline: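 Compounds at various concentrations in 1% DMSO were tested on recombinant membranes in Tris-HCl pH 7.4 buffer containing MgCl2, CaCl2 and 0.2% BSA.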

[2] = target: T1, Human adrenergic α2B receptor; test: β-Arrestin GPCR functional assay, adrenergic α2B (Protocol B); type: cell-based; conditions: β-arrestin, antagonist vs nor-epinephrine EC80
Description: To evaluate the activity of compounds in β-Arrestin GPCR functional assays, recombinant CHO cell line (DiscoveRX), over expressed with human adrenergic α2B receptor were used. The experiment was done with kit of DiscoveRX as per recommended protocol of the supplier. Cells were harvested from culture flask using cell dissociation solution (CDS) and plated at a density of 12,000 cells/well in CP reagent (supplied with the kit) in a half area 96-well white polystyrene plate. After 24 h incubation at 37° C., compounds at various concentrations in 1% (final) DMSO were charged to the cells for 30 min at 37° C. Active nor-epinephrine (-NE) at its EC80 concentrations (50 nM) were then added to the cells and incubated for another 90 min at 37° C. Detection mix was prepared by mixing of Path Hunter cell assay buffer, Emerald II solution and Galactone star solution in a ratio of 19:5:1 and incubated with the cells for 60 min at RT in the dark. The reading was taken in Envision at luminescence mode. Biochemical assay results are presented as the percent Inhibition in Table B2a, or IC50 values in Table B2b.

[3] = target: T2, Human adrenergic α2A receptor (Homo sapiens, UniProt P08913); test: Radioligand binding, adrenergic α2A (Protocol Group B); set-up: purchased Milipore (Millipore); conditions: Protocol Group B; for Percentage inhibition of ligand binding, Adrenergic α2A (0.1 μM) / inhibition at 0.1 µM: 0.1 μM compound; for Percentage inhibition of ligand binding, Adrenergic α2A (0.3 μM) / inhibition at 0.3 µM: 0.3 μM compound; for inhibition at 0.1 µM: read-out: Percentage inhibition of ligand binding, Adrenergic α2A (0.1 μM); for inhibition at 0.3 µM: read-out: Percentage inhibition of ligand binding, Adrenergic α2A (0.3 μM); for Ki: estimated Ki
T2 sequence (P08913 1-465): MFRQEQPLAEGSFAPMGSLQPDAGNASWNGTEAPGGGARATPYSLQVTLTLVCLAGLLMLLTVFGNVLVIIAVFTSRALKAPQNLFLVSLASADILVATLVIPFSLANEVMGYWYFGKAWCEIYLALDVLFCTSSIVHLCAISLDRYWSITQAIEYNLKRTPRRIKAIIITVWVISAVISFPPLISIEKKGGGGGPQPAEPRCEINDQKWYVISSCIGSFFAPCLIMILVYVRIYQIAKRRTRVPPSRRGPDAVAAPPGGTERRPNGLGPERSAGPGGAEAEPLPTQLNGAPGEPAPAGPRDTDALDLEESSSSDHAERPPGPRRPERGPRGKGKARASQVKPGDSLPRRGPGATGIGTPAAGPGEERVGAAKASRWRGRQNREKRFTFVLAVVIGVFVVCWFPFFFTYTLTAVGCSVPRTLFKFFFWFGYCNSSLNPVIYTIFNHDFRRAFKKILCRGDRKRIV
Outline: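 Compounds (1% DMSO vehicle, various concentrations) competed against 2 nM [^3H]MK-912 on recombinant receptor membranes for 60 min at 25° C, Tris-HCl pH 7.4 buffer with Mg2+, Ca2+, BSA. Bound radioligand filtered and counted; 10 μM rauwolscine set nonspecific binding. Values: percent inhibition of specific binding or estimated Ki.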

[4] = target: T3, Human adrenergic α1B receptor (Homo sapiens, UniProt P35368); test: Radioligand binding, adrenergic α1B (Protocol Group B); set-up: purchased Milipore (Millipore); conditions: Protocol Group B; for Percentage inhibition of ligand binding, Adrenergic α1B (0.1 μM) / inhibition at 0.1 µM: 0.1 μM compound; for Percentage inhibition of ligand binding, Adrenergic α1B (0.3 μM) / inhibition at 0.3 µM: 0.3 μM compound; for inhibition at 0.1 µM: read-out: Percentage inhibition of ligand binding, Adrenergic α1B (0.1 μM); for inhibition at 0.3 µM: read-out: Percentage inhibition of ligand binding, Adrenergic α1B (0.3 μM)
T3 sequence (P35368 1-520): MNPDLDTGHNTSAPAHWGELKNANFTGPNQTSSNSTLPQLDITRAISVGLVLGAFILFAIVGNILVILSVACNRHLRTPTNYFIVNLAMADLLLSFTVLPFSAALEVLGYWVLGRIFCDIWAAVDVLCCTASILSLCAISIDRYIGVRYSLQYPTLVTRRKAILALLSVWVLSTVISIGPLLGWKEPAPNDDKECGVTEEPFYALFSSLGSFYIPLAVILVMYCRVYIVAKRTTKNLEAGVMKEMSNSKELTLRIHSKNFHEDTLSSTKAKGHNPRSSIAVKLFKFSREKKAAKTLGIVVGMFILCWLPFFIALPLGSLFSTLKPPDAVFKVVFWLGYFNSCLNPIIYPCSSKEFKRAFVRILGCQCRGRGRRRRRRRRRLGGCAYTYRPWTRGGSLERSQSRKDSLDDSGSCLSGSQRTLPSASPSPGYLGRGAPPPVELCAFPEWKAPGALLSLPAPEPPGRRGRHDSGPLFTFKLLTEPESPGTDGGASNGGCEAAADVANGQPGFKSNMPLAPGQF
Outline: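 Values are percent inhibition of specific [3H]prazosin (0.3 nM) binding or estimated Ki, from filtration counting. Human α1B recombinant membranes, Tris-HCl pH 7.4 buffer with MgCl2 and EDTA, 60 min at 25 °C, 1% DMSO vehicle; 10 μM prazosin defined nonspecific binding.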

[5] = 10 nM compound, read-out: Percentage inhibition of ligand binding, Adrenergic α2B (10 nM)
[6] = 30 nM compound, read-out: Percentage inhibition of ligand binding, Adrenergic α2B (30 nM)

SMILES	Percentage inhibition of ligand binding, Adrenergic α2B (10 nM) ([1]; 10 nM compound)	Percentage inhibition of ligand binding, Adrenergic α2B (30 nM) ([1]; 30 nM compound, 0.03 µM)	Ki ([1]; read-out: Ki α2B)	IC50 ([2]; read-out: IC50 Adrenergic α2B)	Percentage inhibition of ligand binding, Adrenergic α2A (0.1 μM) [3]	Percentage inhibition of ligand binding, Adrenergic α2A (0.3 μM) [3]	Percentage inhibition of ligand binding, Adrenergic α1B (0.1 μM) [4]	Percentage inhibition of ligand binding, Adrenergic α1B (0.3 μM) [4]	inhibition at 0.01 µM [1, 5]	inhibition at 0.03 µM [1, 6]	inhibition at 0.1 µM [3]	inhibition at 0.3 µM [3]	inhibition at 0.1 µM [4]	inhibition at 0.3 µM [4]	also measured
Cc1cc(F)cc2c3c(n(CC(O)c4ccncc4)c12)CCN1CCCC31 (single isomer, unassigned) [136b]	76%	96%	2.45 nM	68.3 nM	45%	72%	24%	63%	–	–	–	–	–	–	–
CC(O)(Cn1c2c(c3cc(Cl)cc(F)c31)CN1CCCC1C2)c1ccncc1 (single isomer, unassigned) [86c]	–	–	13 nM	699 nM	–	–	–	–	24%	53%	-10%	9%	-5%	15%	–
CC(O)(Cn1c2c(c3cc(F)cc(Cl)c31)C1CCCN1CC2)c1ccncc1 (single isomer, unassigned) [88a]	–	–	1.45 nM	388 nM	52%	72%	15%	–	86%	93%	–	–	–	43%	Ki [3]: 43.9 nM
CC(O)(Cn1c2c(c3cc(C(F)(F)F)ccc31)CN1CCCC1C2)c1cccnc1 (single isomer, unassigned) [85a]	–	–	32.6 nM	832 nM	–	–	–	–	9%	42%	-12%	-4%	-9%	4%	–
CC(O)(Cn1c2c(c3cc(Cl)cc(F)c31)CN1CCCC1C2)c1cccnc1 (single isomer, unassigned) [63c]	–	–	12.4 nM	692 nM	–	–	–	–	42%	71%	8%	36%	8%	14%	–
Cc1ccc2c(c1)c1c(n2CC(C)(O)c2cnc3ccccc3c2)CCN(C)C1 (single isomer, unassigned) [32a]	–	–	7.9 nM	396 nM	–	–	–	–	28%	54%	10%	37%	-1%	26%	–
CC(O)(Cn1c2c(c3cc(F)cc(Cl)c31)C1CCCN1CC2)c1ccncc1 (single isomer, unassigned) [88b]	70%	90%	2.85 nM	166 nM	19%	44%	−1%	33%	–	–	–	–	–	–	–
CC(O)(Cn1c2c(c3cc(F)cc(Cl)c31)C1CCCN1CC2)c1cccnc1 (single isomer, unassigned) [89c]	54%	78%	7.6 nM	45.5 nM	24%	40%	0%	22%	–	–	–	–	–	–	–
Cc1ccc2c(c1F)c1c(n2CC(C)(O)c2cccnc2)CCN2CCCC12 (single isomer, unassigned) [87b]	37%	66%	23.8 nM	284 nM	31%	53%	16%	35%	–	–	–	–	–	–	–
Cc1ccc2c(c1)c1c(n2CC(C)(O)c2ccc(F)cc2)CC2CCC1N2C (single isomer, unassigned) [102b]	–	–	–	–	–	–	–	–	–	–	-1%	23%	5%	26%	Ki ([1]; Ki α2B): 19.3 nM; inhibition at 0.01 µM ([1]; read-out: Percentage inhibition of ligand binding, Adrenergic α2B (10 nM), 10 nM compound): 28%; inhibition at 0.03 µM ([1]; read-out: Percentage inhibition of ligand binding, Adrenergic α2B (30 nM), 30 nM compound): 56%; inhibition at 0.1 µM ([1]; read-out: Percentage inhibition of ligand binding, Adrenergic α2B (0.1 μM), 0.1 μM compound): 70%; IC50 ([2]; IC50 Adrenergic α2B): 412 nM
Cc1cc(F)c2c(c1)c1c(n2CC(C)(O)c2cccnc2)CC2CCCN2C1 (single isomer, unassigned) [61c]	–	–	5.4 nM	313 nM	–	–	–	–	51%	77%	2%	41%	4%	15%	inhibition at 0.1 µM ([1]; 0.1 μM compound, read-out: Percentage inhibition of ligand binding, Adrenergic α2B (0.1 μM)): 92%
Cc1ccc2c(c1)c1c(n2CC(OC2CCCC2)c2ccncc2)CCN(C)C1 (single isomer, unassigned) [35b]	65%	–	3.49 nM	212 nM	25%	45%	5%	17%	–	–	–	–	–	–	Percentage inhibition of ligand binding, Adrenergic α2B (30 nM) ([1]; 30 nM compound): 86%; Percentage inhibition of ligand binding, Adrenergic α2B (0.1 μM) ([1]; 0.1 μM compound): 96%; Ki [3]: 241 nM; Ki ([4]; estimated Ki): 456 nM

Source: US20150315188A1, “COMPOUNDS AND METHODS FOR TREATMENT OF HYPERTENSION” (MEDIVATION TECHNOLOGIES, INC., priority 2012, published 2015)
